Assay results taken from article PMC9501377, “New Diarylamine KV10.1 Inhibitors and Their Anticancer Potential” (Pharmaceutics, 2022).

Key:
KV10.1 (Eag1) = target: T1, KV10.1 (Eag1) (Homo sapiens, UniProt O95259); assay: Whole-cell patch-clamp on stably transfected HEK-293 cells expressing KV10.1; type: cell-based; conditions: HEK293; 50 μM, HEK-293 cells, patch-clamp, mean ± SEM
T1 construct: expressed in transfected cells; host or cells: HEK-293 (stably transfected)
T1 sequence (O95259 1-962 isoform O95259-2): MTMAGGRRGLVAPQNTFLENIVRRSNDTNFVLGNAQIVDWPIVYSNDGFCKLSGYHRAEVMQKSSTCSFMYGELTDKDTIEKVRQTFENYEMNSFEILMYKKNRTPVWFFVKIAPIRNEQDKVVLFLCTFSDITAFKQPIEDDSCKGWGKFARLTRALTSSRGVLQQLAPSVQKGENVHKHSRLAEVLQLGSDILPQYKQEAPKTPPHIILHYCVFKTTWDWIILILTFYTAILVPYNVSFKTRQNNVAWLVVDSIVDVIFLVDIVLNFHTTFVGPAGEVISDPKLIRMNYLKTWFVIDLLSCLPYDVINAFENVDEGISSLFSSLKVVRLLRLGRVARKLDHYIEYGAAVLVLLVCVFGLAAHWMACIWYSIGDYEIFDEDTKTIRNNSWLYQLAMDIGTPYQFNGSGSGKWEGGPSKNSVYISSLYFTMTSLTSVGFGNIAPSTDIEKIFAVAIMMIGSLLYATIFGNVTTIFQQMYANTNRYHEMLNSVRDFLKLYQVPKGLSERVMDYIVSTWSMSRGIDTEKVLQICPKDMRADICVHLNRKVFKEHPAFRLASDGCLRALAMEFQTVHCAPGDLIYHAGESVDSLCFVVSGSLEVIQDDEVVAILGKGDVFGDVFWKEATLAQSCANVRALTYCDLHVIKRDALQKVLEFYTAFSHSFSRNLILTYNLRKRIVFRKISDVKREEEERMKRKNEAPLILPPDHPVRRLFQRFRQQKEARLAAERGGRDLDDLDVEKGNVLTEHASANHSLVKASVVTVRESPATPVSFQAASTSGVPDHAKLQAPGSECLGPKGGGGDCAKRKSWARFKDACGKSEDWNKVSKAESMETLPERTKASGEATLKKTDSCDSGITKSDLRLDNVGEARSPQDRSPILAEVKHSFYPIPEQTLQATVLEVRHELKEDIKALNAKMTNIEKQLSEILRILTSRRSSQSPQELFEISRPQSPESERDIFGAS
Description: For whole-cell patch-clamp measurements, stably transfected HEK-293 cells expressing KV10.1 [26, 27, 28] were grown in DMEM with 10% FCS and 300 µg/mL Zeocin on glass coverslips coated with fibronectin. All experiments were conducted at room temperature under perfusion by gravity with extracellular solution (160 mM NaCl, 2.5 mM KCl, 2 mM CaCl2, 1 mM MgCl2, 10 mM Hepes pH 7.4 with NaOH, 8 mM glucose). Pipettes were made from #1 glass capillaries (WPI) and had 1–3 MΩ resistance. The intracellular solution contained 100 mM KCl, 45 mM N-methyl-D-glucamine, 10 mM 1,2-bis(o-aminophenoxy)ethane-N,N,N′,N′-tetraacetic acid (BAPTA), 10 mM Hepes pH 7.35. Stimulation was applied and data were acquired with an EPC10 Plus amplifier (HEKA Elektronik) controlled with Patch Master software. Compounds were applied with an 8-channel fast solution exchanger (ALA). Compounds were prepared to a stock concentration of 10 mM in DMSO. The control solution contained 0.5% DMSO. Stimuli consisted of 500 ms depolarizations to +40 mV.
All electrophysiological data are presented as means ± SEM of n ≥ 3 independent experiments unless otherwise indicated. Oocyte data were analysed using pClamp Clampfit 10.4 (Molecular Devices, Downingtown, PA, USA) and OriginPro 9 (Originlab, Northampton, MA, USA) or GraphPad Prism 8 software (GraphPad Software, Inc., San Diego, CA, USA). Patch-clamp data analysis was performed using FitMaster (HEKA Electronics), IgorPro (Wavemetrics, Inc., Lake Oswego, OR, USA) and GraphPad Prism 9 (GraphPad Software, Inc., San Diego, CA, USA). The Dunnett test and one-way ANOVA were performed to calculate the significance of the induced inhibition compared to the control (p < 0.05).

[1] = tested on: tumour spheroids of Colo357 cells; parameters: method as in PMID 33808994; conditions: cited from earlier work

inhibition at 50 µM (KV10.1 (Eag1)) [%]	SMILES	apoptosis in tumour spheroids of Colo357 cells [1]
60.7 ± 9.6	COc1ccc(OCC2(O)CCN(CC(O)COc3ccc(Nc4ccc(C(F)(F)F)cc4[N+](=O)[O-])cc3)CC2)cc1 (stereo not shown) [Compound 16b, 1-(2-Hydroxy-3-(4-((2-nitro-4-(trifluoromethyl)phenyl)amino)phenoxy)propyl)-4-((4-methoxyphenoxy)methyl)piperidin-4-ol]	
44.6 ± 8.6	O=[N+]([O-])c1cc(C(F)(F)F)ccc1Nc1ccc(OCC(O)CN2CCC(O)(COc3ccc(Cl)c(Cl)c3)CC2)cc1 (stereo not shown) [Compound 16a, 4-((3,4-Dichlorophenoxy)methyl)-1-(2-hydroxy-3-(4-((2-nitro-4-(trifluoromethyl)phenyl)amino)phenoxy)propyl)piperidin-4-ol]	
26.8 ± 10.1	O=C(NC1CCN(CC(O)COc2ccc(Nc3ccc(C(F)(F)F)cc3[N+](=O)[O-])cc2)CC1)c1ccc(Cl)c(Cl)c1 (stereo not shown) [Compound 16c, 3,4-Dichloro-N-(1-(2-hydroxy-3-(4-((2-nitro-4-(trifluoromethyl)phenyl)amino)phenoxy)propyl)piperidin-4-yl)benzamide]	
	CN(C)CCCOc1ccc(Nc2ccc(C(F)(F)F)cc2[N+](=O)[O-])cc1 [Compound 2]	induced significant apoptosis
